# Reference: patent US7381540B2, “Composition for measuring glucose having improved substrate specificity” (Toyo Boseki Kabushiki Kaisha, priority 2005, dated 2008)
# Columns and labels:
# modified PQQGDH [1] = assay: Substrate specificity using glucose assay system (ferricyanide reduction, absorbance 420 nm); type: biochemical
# Procedure: D-glucose+ferricyanide ion+PQQGDH D-glucono-1,5-lactone+ferrocyanide ion
# Specificity to each substrate can be determined by changing D-glucose to other saccharides. The presence of the ferrocyanide ion produced by reduction of the ferricyanide ion was confirmed by measuring the decrease of absorbance at a wavelength of 420 nm by spectrophotometry.
# A. […]
# B. Potassium ferricyanide solution: 50 mM (0.165 g potassium ferricyanide (molecular weight: 329.25) dissolved in 10 ml of distilled water)
# C. PQQGDH solution: 31000 U/ml (approx. 128 mg PQQGDH (Toyobo: GLD-331) dissolved in 5 ml of distilled water)
# D. Substrate solution (D-glucose solution or maltose solution): 100 or 400 mM
# • 1. The following reaction mixture was prepared in a light shielding bottle, and stored on ice (prepared at use). 48.2 mL of each buffer solution (pH6.5) (A) • 4.0 mL of potassium ferricyanide solution (B) • 0.19 mL of (C) • 2. 2.65 ml of the reaction mixture and 0.3 ml of additive were placed in a test tube (plastic) and pre-warmed for 5 minutes at 37° C. • 3. 0.15 ml of substrate solution (D) were added and mixed gently. • 4. The reduction in the absorbance relative to water at 420 nm was recorded for 1 to 3 minutes with a spectrophotometer while maintaining at a temperature of 37° C., and the ΔOD per minute was calculated from the initial linear portion of the curve (ΔOD test). At the same time, the same procedure was carried out with the exception of adding distilled water instead of glucose solution followed by measurement of the blank (ΔOD blank).
# The above-mentioned procedure was carried out at each of the predetermined concentrations shown in Tables 1 to 3 using as additives succinic acid, adipic acid, suberic acid, pimeric acid, potassium chloride, ammonium chloride, diammonium hydrogen citrate, malonic acid, L-lysine, taurine, 3,3-dimethylglutaric acid, malic acid, glutaric acid, calcium glycerate, amino-n-butyric acid, sodium glycolate, sodium α-ketoglutarate, fumaric acid, glycerin, glutamic acid and serine. And the procedure was also carried out for those not containing additives to assess the effects of additives.
# Variation in absorbance per unit time was determined by calculating ΔOD/min(ΔOD test−ΔOD blank)
# To evaluate whether activity had declined with respect to sugars other than glucose, the ΔOD/min (a) with D-glucose as the substrate solution and the ΔOD/min (b) with the other sugar in place of D-glucose as the substrate solution were measured, and the relative value ((b)/(a)×100) was calculated given 100 as the measurement value with glucose as the substrate.
# In each of Tables 3 to 5, in the case the value of the ratio of measured values of maltose and glucose (maltose/glucose) relative to the control (control: no addition) is small, activity with respect to maltose during glucose measurement decreases.
# modified PQQGDH [2] = assay: as above; type: biochemical; conditions: potassium phosphate buffer pH 7.0
# modified PQQGDH [3] = assay: Maltose activity of glucose electrode loaded with modified PQQGDH (oxidation current, potassium ferricyanide mediator); type: biochemical, Acinetobacter baumannii strain NCIMB11517; conditions: for Maltose Activity (%): solute 50 mM, pH 5.5, glucose or maltose 4 mM, 0.1 M potassium ferricyanide, +0.35 V, 25° C.; for Maltose Activity of Glucose Electrode: 50 mM solvent, 1 mM calcium chloride, 0.1% Triton X-100
# Procedure: 0.5 g of carbon graphite were placed in a mortar followed by the addition of 0.3 ml of liquid paraffin and kneading with a pestle for 30 minutes to produce a carbon paste. The resulting carbon paste was spread onto a platinum electrode followed by the addition of 10 μl of the modified PQQGDH solution (2,000 U/ml) produced in Example 2 and air drying for 30 minutes at room temperature. A cut cellulose semi-permeable membrane (molecular weight: 8,000) was placed over the dried enzyme electrode and the semi-permeable membrane was immobilized with plastic O-rings. The glucose electrode produced in this manner was then used after preliminarily immersing in the cold reaction solvent for 30 minutes.
# The substances listed in Table 1 were used as solutes, and buffers were respectively prepared having a final concentration of 50 mM (pH 5.5). Each of the solvents contained an activator/stabilizer in the form of calcium chloride at 1 mM and surfactant in the form of 0.1% Triton X-100 in addition to the solute listed in Table 1. Potassium ferricyanide was dissolved in each of the produced solvents to a concentration of 0.1 M to prepare reaction solutions.
# 50 mM phosphoric acid or pimeric acid solution containing 1 mM calcium chloride and 0.1% Triton X-100 (consisting of three types having pH values of 5.0, 6.0 and 7.0, respectively) were prepared. Maltose activity of the glucose electrode was investigated for each according to the method of Example 5.
# [4] = glutaric acid buffer pH 7.0, reagent 1%, substrate 4.8 mM, control 0.86
# [5] = glutaric acid buffer pH 7.0, reagent 1%, substrate 19.2 mM, control 0.94
# [6] = phthalic acid buffer pH 7.0, reagent 0.5%, substrate 4.8 mM, control 0.72
# [7] = phthalic acid buffer pH 7.0, reagent 0.5%, substrate 19.2 mM, control 0.75
# [8] = phthalic acid buffer pH 7.0, reagent 1%, substrate 4.8 mM, control 0.72
# [9] = phthalic acid buffer pH 7.0, reagent 1%, substrate 19.2 mM, control 0.75
# [10] = phthalic acid buffer pH 7.0, reagent 2%, substrate 4.8 mM, control 0.72
# [11] = phthalic acid buffer pH 7.0, reagent 2%, substrate 19.2 mM, control 0.75
SMILES,Maltose/glucose ratio (modified PQQGDH [1]; [4]),Maltose/glucose ratio (modified PQQGDH [1]; [5]),Maltose/glucose ratio (modified PQQGDH [1]; [6]),Maltose/glucose ratio (modified PQQGDH [1]; [7]),Maltose/glucose ratio (modified PQQGDH [1]; [8]),Maltose/glucose ratio (modified PQQGDH [1]; [9]),Maltose/glucose ratio (modified PQQGDH [1]; [10]),Maltose/glucose ratio (modified PQQGDH [1]; [11]),Maltose Activity (%) (modified PQQGDH [3]),other results
NCC(=O)O [Glycine],0.76,0.93,–,–,–,–,–,–,–,–
CC[C@H](N)C(=O)O [L-2-amino-n-butyric acid],0.76,0.92,–,–,–,–,–,–,–,–
Cl.NCCCC[C@H](N)C(=O)O [L-lysine hydrochloride],0.65,0.87,0.62,0.64,0.61,0.58,0.59,0.50,–,"Maltose/glucose ratio (modified PQQGDH [1]; potassium phosphate buffer pH 7.0, reagent 0.5%, substrate 19.2 mM, control 0.93): 0.91; Maltose/glucose ratio (modified PQQGDH [1]; potassium phosphate buffer pH 7.0, reagent 1%, substrate 19.2 mM, control 0.93): 0.93; Maltose/glucose ratio (modified PQQGDH [2]; reagent 0.5%, substrate 4.8 mM, control 0.85): 0.78; Maltose/glucose ratio (modified PQQGDH [2]; reagent 1%, substrate 4.8 mM, control 0.85): 0.71; Maltose/glucose ratio (modified PQQGDH [2]; reagent 2%, substrate 4.8 mM, control 0.85): 0.66; Maltose/glucose ratio (modified PQQGDH [2]; reagent 2%, substrate 19.2 mM, control 0.93): 0.85"
N[C@@H](CO)C(=O)O [L-serine],0.73,0.87,–,–,–,–,–,–,–,–
"O=S(=O)(O)CCN1CCOCC1 [MES, reference compound]",–,–,–,–,–,–,–,–,29.6%,–
O=C(O)CC(=O)O [Malonic acid],0.68,0.84,0.74,0.58,0.77,0.57,0.82,0.63,23.2%,"activity with respect to maltose compared with the control (in words) (modified PQQGDH [1]; substrate concentration of 4.8 mM, in some cases): did not decrease"
"O=P(O)(O)O [Phosphoric acid, reference compound]",–,–,–,–,–,–,–,–,28.0%,Maltose Activity of Glucose Electrode (modified PQQGDH [3]; pH 5.0): 23.7%; Maltose Activity of Glucose Electrode (modified PQQGDH [3]; pH 6.0): 36.8%; Maltose Activity of Glucose Electrode (modified PQQGDH [3]; pH 7.0): 50.8%
O=C(O)c1ccccc1C(=O)O [Phthalic acid],–,–,–,–,–,–,–,–,4.9%,–
[Cl-].[K+] [Potassium chloride],–,–,0.66,0.71,0.67,0.64,0.60,0.60,–,–
NCCS(=O)(=O)O [Taurine],0.75,0.81,0.71,0.72,0.66,0.68,0.62,0.68,–,–
O=C([O-])CO.[Na+] [sodium glycolate],0.77,0.92,–,–,–,–,–,–,–,–
